According to a melting point compilation (Tetko et al.; mined from patent text by program, amines drawn as free bases though some values may be those of a salt):

First: CN(C)c1ccc(NC(=O)NC2CCCC2)c(C(=O)NCC2CCN(C(c3ccccc3)c3ccccc3)CC2)c1
Second: Clc1ccc2oc(SCCN3CCC(OC(c4ccccc4)c4ccccc4)CC3)nc2c1
The melting point of the first is higher: 211 to 213 °C for the first, 98 to 101 °C for the second.

First: CCOc1cc(N(CC)CC)ccc1C1(c2c(C)n(CC)c3ccccc23)OC(=O)c2ccccc21 (stereo not drawn)
Second: O=C(CN1C(=O)C2(COc3ccc(-c4cccnc4)cc32)c2ccccc21)Nc1ccccc1F (stereo not drawn)
The melting point of the first is higher: 193 °C for the first, 98 to 100 °C for the second.

First: C=CCNc1cc(Cl)nnc1Cl
Second: COC(=O)C(C)Oc1ncn(-c2ccc(Cl)cc2Cl)n1 (stereo not drawn)
The melting point of the first is higher: 95 to 98 °C for the first, 74 to 75 °C for the second.

Compared with `O=S(CCCCCOc1ccc(C2=C(c3ccccc3)CCCc3cc(O)ccc32)cc1)CCCC(F)(F)F` (stereo not drawn), `Cc1oc(-c2ccccc2)nc1COc1ccc(COc2ccc(O)cc2CC#N)cc1` is higher in melting point: 145 °C for the first, 185 to 186 °C for the second.

Compared with `CC(=O)OC1CSC(Oc2cccnc2-c2cncnc2)C(OC(C)=O)C1OC(C)=O` (stereo not drawn), `CC(=O)OC1CSC(Oc2cncc(-c3cncnc3)c2)C(OC(C)=O)C1OC(C)=O` (stereo not drawn) is higher in melting point: 205 °C for the first, 213 to 217 °C for the second.

Compared with `O=C1CCC(c2ccc(N=C3NCCN3)cc2)=NN1`, `O=C(Cc1ccc(I)cc1)NC[C@H]1CCCN1` is lower in melting point: 235 to 236 °C for the first, 120 °C for the second.

First: COC(=O)Nc1nc2ccc(O)cc2[nH]1
Second: Cc1nc(Nc2nc3ccc([N+](=O)[O-])cc3[nH]2)nc(O)c1CC(=O)O
The melting point of the first is lower: 300 °C for the first, over 300 °C for the second.

Compared with `O=C(Oc1cccc2c(-c3ccccc3)c3cccc(OC(=O)C4CCCCC4)c3c(OC(=O)C3CCCCC3)c12)C1CCCCC1`, `NC(=O)c1[nH]c2ccccc2c1-c1ccc(NC(=O)Nc2ccccc2)cc1` is lower in melting point: 235 °C for the first, 232 to 234 °C for the second.

First: OCCCc1cnoc1-c1ccc(Cl)c(Br)c1
Second: Clc1nc2ccc(Br)cc2cc1Cc1ccccc1
The melting point of the first is lower: 75 to 76 °C for the first, 102 to 104 °C for the second.

First: CCOC(=O)C1(F)C(=O)NC(=O)NC1N1CCCCC1 (stereo not drawn)
Second: CS(=O)(=O)c1ccc(C(CC2CCCC2)C(=O)O)cc1F (stereo not drawn)
The melting point of the first is higher: 149 to 150 °C for the first, 115 to 117 °C for the second.

First: CCOC(=O)c1ccccc1-n1nc(C(=O)OCC)c2csc(N)c2c1=O
Second: CCOC(=O)C1=C(C)NC(C(OCC)OCC)=C(C(=O)OCC)C1c1ccccc1Cl (stereo not drawn)
The melting point of the first is higher: 176 to 178 °C for the first, 75 to 77 °C for the second.

First: CC(C)C1(C(C)C)C(=O)N=C2c3ccccc3C(=O)N21
Second: CC(C)(C)c1cc(N2C(=O)c3ccccc3C2=O)cc(C(C)(C)C)c1O
The melting point of the first is lower: 146 to 148 °C for the first, 196 to 201 °C for the second.

First: CCC#CC(C)(C)NC(=O)C(CC)Oc1cncc(C(=O)O)c1 (stereo not drawn)
Second: CC(C)Oc1cccc(NC(=O)OC(C)(C)C)c1
The melting point of the first is higher: 162 to 164 °C for the first, 79 to 81 °C for the second.

First: CS(=O)(=O)OCCN(CCI)c1c(C(=O)NCCOP(=O)(O)O)cc([N+](=O)[O-])cc1[N+](=O)[O-]
Second: O=C(CNC(=O)c1cc([N+](=O)[O-])ccc1F)OCc1ccccc1
The melting point of the first is higher: 147 to 150 °C for the first, 56 to 58 °C for the second.

First: COc1ccc(-c2c(O)c3ccc(Cl)cc3[nH]c2=O)cc1OC
Second: CCCN(CCC)C(=O)c1n[nH]c2c(=O)[nH]c3cc(Cl)ccc3c(=O)c12
The melting point of the first is higher: 312 to 314 °C for the first, 270 °C for the second.

First: C[C@@]1(Cn2cc([N+](=O)[O-])nc2Br)CO1
Second: CC1(Cn2nc(-c3ccccc3)oc2=O)Cn2cc([N+](=O)[O-])nc2O1 (stereo not drawn)
The melting point of the first is lower: 93 to 94 °C for the first, 225 to 227 °C for the second.

First: O=C(Nc1cc(-n2cccn2)nc(-c2ccco2)n1)OCc1cccnc1
Second: CCOC(=O)c1cnc(-c2ccccc2)nc1Nc1ccccc1
The melting point of the first is higher: 254 to 256 °C for the first, 98 to 100 °C for the second.

First: CC(C)SC(=O)CCS(=O)(=O)C(C)C
Second: CCCCCCCC1CC(C(=O)Nc2c(C(C)C)cccc2C(C)C)C(=O)O1 (stereo not drawn)
The melting point of the first is lower: 45 to 47 °C for the first, 95 to 98 °C for the second.

Compared with `Cc1cnc(NC(=O)C(c2ccccc2)c2ccccc2)o1`, `O=C(O)C(c1ccccc1)n1nnc(C(c2ccccc2)c2ccccc2)n1` (stereo not drawn) is lower in melting point: 166 to 168 °C for the first, 158 to 161 °C for the second.

Compared with `O=C(Nc1ccc(F)cc1F)Oc1ccccc1`, `O=C(NCc1cccc([N+](=O)[O-])c1)Nc1ccccc1` is higher in melting point: 82 to 84 °C for the first, 153 to 156 °C for the second.

Compared with `CC(=O)OC1(C(=O)COC(=O)c2ccccc2)CCC2C3CC(C)C4=CC(=O)C=CC4(C)C3C(O)CC21C` (stereo not drawn), `CCC(=O)OCC(=O)C1(OC(=O)CC)CCC2C3CC(C)C4=CC(=O)C=CC4(C)C3C(O)CC21C` (stereo not drawn) is lower in melting point: 136 to 138 °C for the first, 126 °C for the second.

First: NS(=O)(=O)c1ccc(-c2cccn2-c2ccc(Cl)cc2)cc1
Second: COc1ccc(N2C(=O)C(C)N(c3ccc(Cc4ccccc4)cc3)C2=S)cc1 (stereo not drawn)
The melting point of the first is higher: 179 to 181 °C for the first, 122 °C for the second.

First: Cn1c(C(F)(F)F)c(I)c(=O)n(C)c1=O
Second: Cn1c(=O)c2conc2n(C)c1=O
The melting point of the first is lower: 149 to 151 °C for the first, 170 to 171 °C for the second.

First: CN(C)CC1CCN(c2nc(N3CCOCC3)c3ncnc(N(C)Cc4cccc5ccccc45)c3n2)CC1
Second: O=c1[nH]c2ccccc2c(=O)n1CCN1CCC(c2noc3cc(F)ccc23)CC1
The melting point of the first is lower: 158 °C for the first, 253 °C for the second.

First: CCn1cc(C(=O)O)c(=O)c2cc(F)c(N3C[C@@H](N)[C@@H](C)C3)c(F)c21 (relative stereo)
Second: CC(C)(C(=O)OCC(=O)c1ccccc1)n1c(=O)[nH]c2cc(F)c(F)cc2c1=O
The melting point of the first is higher: 232 to 234 °C for the first, 174 to 176 °C for the second.

Compared with `CC(C)=CCN1CCn2c(=O)[nH]c3cc(Cl)cc(c32)C1C` (stereo not drawn), `CN(C)C(=O)C(CCO)C1CCc2[nH]c3ccccc3c21` (stereo not drawn) is lower in melting point: 139 °C for the first, 135 to 137 °C for the second.

First: CC(=O)CC(O)c1ccc([N+](=O)[O-])cc1 (stereo not drawn)
Second: CNC(=O)n1nc(Oc2ccc([N+](=O)[O-])cc2C(F)(F)F)c(Cl)c1C
The melting point of the first is lower: 62 °C for the first, 157 to 158 °C for the second.

First: CC1(C)C(=O)Nc2cc3oc(Cc4ccncc4)nc3cc21
Second: CC1(C)C(=O)Oc2ccc3cc(C(N)=O)c(Cn4cncn4)cc3c21
The melting point of the first is lower: 208 to 211 °C for the first, 231 to 232 °C for the second.

Compared with `CCc1nnc(-c2ccc(OC)cc2)n1-c1ccccc1`, `Cc1nnc2n1-c1ccc(Cl)cc1N(c1ccccc1)C(=O)C2` is higher in melting point: 118 °C for the first, 297 to 298 °C for the second.

First: CCOC(=O)CCc1oc2cccc(O)c2c1C
Second: CCOC(=O)CCc1cn(Cc2ccc(OCc3cn4c(Cl)cccc4n3)cc2)nc1OCC
The melting point of the first is lower: 61 to 63 °C for the first, 69 to 70 °C for the second.

Compared with `COc1ccccc1[C@@]1(O)[C@H](O)CC(c2ccccc2)(c2ccccc2)[C@@H]2CN(C(=O)Cc3ccccc3N(C)C)C[C@@H]21` (racemic), `O=c1ccoc(C(O)c2ccccc2F)c1OCc1ccccc1` (stereo not drawn) is lower in melting point: 175 to 177 °C for the first, 116 °C for the second.

Compared with `COC(=O)c1ncn2c1C(C)N=C(c1ccccc1F)c1cc(Cl)ccc1-2` (stereo not drawn), `CCCOc1ccccc1-c1nc2c(CCC)nn(C)c2c(=O)[nH]1` is lower in melting point: 190 to 191 °C for the first, 115 to 116 °C for the second.

First: COC(=O)CCCC1C(=S)Nc2ccccc21 (stereo not drawn)
Second: COC(=O)CCn1c(C)c(Cn2ccnc2)c2c(CCC(=O)O)cccc21
The melting point of the first is lower: 132 to 134 °C for the first, 136 to 138 °C for the second.

First: CCc1nc(NC)sc1C(=O)c1ccc(Cl)c([N+](=O)[O-])c1
Second: CCOC(=O)c1cc(Cl)c(S(C)(=O)=O)c(-c2cc(C)no2)c1C
The melting point of the first is higher: 186 to 190 °C for the first, 126 to 129 °C for the second.

First: C=CCc1nc(CC)n2nc(-c3cc(I)cnc3OCCCC)[nH]c(=O)c12
Second: CCCc1nn(-c2ccc(C(F)(F)F)cn2)cc1CCCCOc1cccc(CC(=O)O)c1
The melting point of the first is higher: 134 to 135 °C for the first, 96 to 97 °C for the second.

First: COc1ccc(CCCc2nnc(-c3ccc4occc4c3)o2)cc1
Second: COc1ccc(C(=O)COc2ccc3oc(C(=O)c4ccc(OC)cc4)c(C)c3c2)cc1
The melting point of the first is lower: 116 to 117 °C for the first, 155 to 157 °C for the second.

First: CC(C)=CCC(C)(C)C(=O)/C=C/[C@@H]1[C@H]2CC(=O)O[C@H]2C[C@H]1OC(=O)c1ccccc1
Second: CC(C)(C)OC(=O)N1CCC(NC(=O)c2ccc(-n3cccn3)cc2)CC1
The melting point of the first is lower: 98 °C for the first, 170 to 171 °C for the second.

First: COC(=O)[C@@H](O)[C@H](CC(C)C)NC(=O)[C@H](Cc1c[nH]cn1)NC(=O)[C@H](Cc1cccc2ccccc12)NC(=O)OCc1ccccc1
Second: CNC(=O)C(Cc1ccc(OC)cc1)NC(=O)C(CC(C)C)C(CC(=O)OC)SC(C)=O (stereo not drawn)
The melting point of the first is lower: 110 to 114 °C for the first, 118 to 135 °C for the second.

Compared with `O=C1C(=O)c2ccccc2C2=C1SCC1(CCN(C(=O)c3nc4ccccc4[nH]3)CC1)O2`, `CSc1nn2c(N3CCNCC3)cc(C)nc2c1S(=O)(=O)c1ccccc1` is lower in melting point: 266 to 268 °C for the first, 137 to 139 °C for the second.

Compared with `Cc1cc(-c2cc(C(F)(F)F)n3ncc(I)c3n2)ccc1C(F)(F)F`, `Cn1c(C(F)(F)F)ccc(-c2cc(C#N)c(Cl)cc2F)c1=O` is higher in melting point: 160 °C for the first, 180 to 181 °C for the second.

Compared with `Nc1nc(CN2CCC(c3c[nH]c4ccccc34)CC2)cs1`, `COc1ccc(-c2nccs2)cc1OC1CCCC1` is lower in melting point: 195 to 198 °C for the first, 72 to 75 °C for the second.

First: Cc1cc(C(c2ccc(C(c3ccc(O)c(C)c3)c3ccc(O)c(C)c3)cc2)c2ccc(O)c(C)c2)ccc1O
Second: COc1cccc(C(O)(CC2CCNCC2)c2cccc(OC)c2)c1
The melting point of the first is higher: 195 °C for the first, 111 to 113 °C for the second.

First: COC(=O)[C@@H]1NC(=O)[C@@H]1NC(=O)OC(C)(C)C (relative stereo)
Second: CC(C)(C)OC(=O)NCCNC(=O)c1cccc(Br)n1
The melting point of the first is higher: 140 to 144 °C for the first, 108 to 109 °C for the second.

First: OCCCCCCCCCCCOc1ccc(O)cc1
Second: O=c1[nH]c(COCc2ccccc2)nc2nccnc12
The melting point of the first is lower: 99 to 100 °C for the first, 157 to 159 °C for the second.

First: COc1ccc(NC(C)C)c(S)c1
Second: CC(C)(O)c1cc(Br)ccc1NC(=O)CCl
The melting point of the first is lower: 68 to 69 °C for the first, 133 to 134 °C for the second.

First: CC(C)C(C)(N)C(N)=S (stereo not drawn)
Second: CC(c1ccnnc1)C(O)(Cn1cncn1)c1ccc(Cl)cc1Cl (stereo not drawn)
The melting point of the first is lower: 98 to 100 °C for the first, 174 to 177 °C for the second.

First: CC1CC(C)CN(S(=O)(=O)c2ccc(Cl)c(C(=O)Cl)c2)C1 (stereo not drawn)
Second: CCSC(F)(F)C(O)(Cn1cncn1)c1ccc(F)cc1F (stereo not drawn)
The melting point of the first is higher: 164 to 166 °C for the first, 109 to 110 °C for the second.

First: CN(C)Cc1ccc(CSCCN=CNC#N)o1
Second: CN1CC(CCCN2CCN(c3ncccn3)CC2)OC1=O (stereo not drawn)
The melting point of the first is lower: 74 to 76 °C for the first, 79 to 89 °C for the second.

First: COc1ccc2[nH]c(=O)nc(C)c2c1OC
Second: CCN(CC)CCCCNc1ncc2c(n1)N(C1CC1)C(=O)N(c1c(F)c(OC)cc(OC)c1F)C2
The melting point of the first is higher: 248 to 249 °C for the first, 139 to 141 °C for the second.
